Source: patent US9700637B2, “Reaction-based fluorescent probes for detecting zinc” (Massachusetts Institute of Technology, priority 2013, dated 2017)
Values joined by “and” are separate entries in the source; they are usually repeats but may differ in a detail not shown here. Equal values may be shown once.

Legend:
[1] = Charge of predominate species in solution at physiological pH; type: physicochemical; conditions: physiological pH = 7.4
[2] = Zinc-induced fluorescence response in cuvette (turn-on, quantum yield); type: physicochemical; conditions: for zinc-induced fluorescence response (turn-on): excess ZnCl2
Procedure: FIG. 2 depicts the normalized fluorescent spectra of DA-ZP1-TPP (also referred to as Ac2-ZP1-TPP) and ZP1-TPP in the absence (dashed line) and presence (solid line) of excess ZnCl2. Inset: The y-axis is magnified to aid in the visualization of the ˜7-fold “turn-on” of ZP1-TPP.
FIG. 20 depicts Zn(II)-dependent fluorescence signal enhancement of DA-ZP1-TPP. (a) Normalized fluorescence spectra of a 1 μM solution of DA-ZP1-TPP, in 50 mM PIPES buffer (pH 7) with 1 mM EDTA, 2 mM CaCl2, and 100 mM KCl, upon increasing concentrations of free zinc ions. (b) Zinc binding isotherm for the data in (a), normalized to the fluorescence signal under zinc saturating conditions (λex=495 nm).
Spectra were acquired in 50 mM PIPES (pH 7) with 100 mM KCl. For this titration, a single excitation wavelength of λex=485 nm was used.
The diacetylated version of ZP1-TPP, designated DA-ZP1-TPP, was readily prepared by reacting ZP1-TPP with acetic anhydride overnight at room temperature. Over the course of the reaction, the mixture turned from a dark, salmon-colored solution to a light, nearly colorless liquid, which was purified by HPLC. […] Addition of nanomolar concentrations of zinc ions results in a large increase in both the absorption λabs-Zn=510 nm) and fluorescence (λem-Zn=529 nm, FIG. 20a) spectral bands of DA-ZP1-TPP. These optical changes combine to yield a >140-fold increase in the fluorescence signal (ΦZn=0.75±0.03, FIG. 20). […] Whether the mode of zinc-mediated ester hydrolysis proceeds by internal or external hydroxide attack remains to be determined. […] Addition of a chelator (EDTA) attenuates the fluorescence signal ˜5-fold (Φ=0.15±0.02) in the cuvette (FIG. 22) with a concomitant redshift in the absorption spectrum (λabs=522 nm). Reversibility of the fluorescence signal is an important feature for zinc-responsive probes, because it allows confirmation that the observed increase in fluorescence signal is due to Zn(II) and not the result of an artifact. […]
Using DA-ZP1-A3 as a model system, we assessed its photophysical and zinc-binding properties (FIG. 26). […]

[3] = Octanol/aqueous buffer partition coefficient (modified shake-flask); type: physicochemical; conditions: octanol/water, buffered at pH 7 with 10 mM Tris
Source text: To understand better the limitations of TPP in directing fluorophores to mitochondria, we prepared two additional TPP-derivatives, one based on 6-carboxyfluorescein (FL-TPP) and one on coumarin 343 (C343-TPP). […] To test this hypothesis, we conducted live cell fluorescence imaging experiments with FL-TPP. […] Not only did FL-TPP fail to accumulate in mitochondria, it was cell-impermeable under our imaging conditions. In contrast, the cationic C343-TPP strongly colocalized with MitoTracker Red in live HeLa cells (Pearson's r=0.72±0.02). To quantify the effect of hydrophobicity in mitochondrial-targeting, we measured the octanol/aqueous buffer partition coefficient (log P) for our TPP constructs and two MitoTracker dyes. We then tabulated the log P, charge of the predominate species in solution at physiological pH, and cellular localization for each dye (Table 1). […] Along with cationic charge, a minimum level of lipophilicity must be reached in order to evade endo/lysosomal sequestration and enable effective mitochondrial targeting.

[4] = system: HeLa cells; experiment: Live cell fluorescence imaging: response to intracellular zinc (ZnPT/TPEN) and stability in cellulo; type: cell-based
Procedure: FIG. 5 depicts live cell imaging of HeLa cells that were bathed in a 1 μM solution of DA-ZP1-TPP in dye and serum free DMEM media for 30 min at 37° C. and 5% CO2. […] There was minimal fluorescent signal from DA-ZP1-TPP, consistent with the quenched fluorescent form of the sensor (top, right).
FIG. 24 depicts fluorescence images of live HeLa cells. HeLa cells were pretreated with a 1 μM solution of DA-ZP1-TPP in dye- and serum-free medium for 30 min (37° C., 5% CO2). […] The signal from MitoTracker Red (c) correlates well with the signal from the zinc-bound sensor (d). Pearson's r=0.64±0.1 (n=18). […]
We used HeLa cells as a model system to evaluate the ability of DA-ZP1-TPP to target mitochondria and respond to changes in intracellular zinc levels. Live HeLa cells were pretreated with medium containing 1 μM DA-ZP1-TPP and 250 nM MitoTracker Red for 30 min (37° C., 5% CO2) prior to imaging (FIG. 24). […] Over a two-hour period, the fluorescence intensity from the sensor remained constant, implying that the acetylated form is stable against intracellular esterases (FIG. 24e). […] Addition of 100 μM TPEN attenuated the fluorescence signal by ˜2.4-fold (FIG. 24f). […] We anticipate that this strategy will be applicable to related families of fluorophores. […]

Charge of the predominate species in solution [1] | log P [3] | period over which signal intensity was stable in cellulo ([4]; live HeLa, 1 μM, no added zinc) | Compound | attenuation of fluorescence signal by EDTA ([2]; chelator (EDTA) added after zinc) | zinc-induced fluorescence response (turn-on) [2] | increase in fluorescence intensity on ZnPT ([4]; live HeLa, 1 μM probe, 50 μM ZnPT) | attenuation of fluorescence signal by TPEN ([4]; live HeLa, 100 μM TPEN after 50 μM ZnPT) | response to changing intracellular zinc levels ([4]; live HeLa cells)
+1 | 0.74±0.18 | 2 h | CC(=O)Oc1c(Cl)cc2c(c1CN(Cc1ccccn1)Cc1ccccn1)Oc1c(cc(Cl)c(OC(C)=O)c1CN(Cc1ccccn1)Cc1ccccn1)C21OC(=O)c2ccc(C(=O)NCC[P+](c3ccccc3)(c3ccccc3)c3ccccc3)cc21 [DA-ZP1-TPP] | ~5 fold | > 140 fold | ~12.1 fold and ~12 fold | ~2.4 fold | –
Zwitterion | −0.11 ± 0.01 | – | O=C(NCC[P+](c1ccccc1)(c1ccccc1)c1ccccc1)c1ccc2c(c1)C1(OC2=O)c2cc(Cl)c(O)c(CN(Cc3ccccn3)Cc3ccccn3)c2Oc2c1cc(Cl)c(O)c2CN(Cc1ccccn1)Cc1ccccn1 [ZP1-TPP] | – | ~7 fold | – | – | did not respond significantly to changing intracellular zinc levels
